Assay results reported in ChEMBL document CHEMBL6153074, “Discovery of novel dual tubulin and MMPs inhibitors for the treatment of lung cancer and overcoming drug resistance” (Eur J Med Chem, 2025).
Active and inactive are the calls of the source. No cut-off for these calls is given here.

Legend:
[1] = Toxicity in BALB/c mouse xenografted with human A549 cells assessed as body weight loss at 10 to 20 mg/kg, ip for 3 weeks administered on every 2 days; type: organism-based; settings: in vivo, 504 h, dose 10-20 mg/kg
A549 [2] = experiment: Downregulation of NF-kappaB p65 phosphorylation in TNF-alpha-treated human A549 cells by Western blot analysis; type: functional, cell-based
Tubulin (Homo sapiens) = Tubulin (Homo sapiens) (UniProt P68371+Q9H4B7+P0DPH7+P68366+Q13509+Q71U36+P04350+Q3ZCM7+P07437+P68363+Q9BQE3+Q6PEY2+Q13885+Q9BVA1+Q9BUF5); experiment: Disruption of microtubule network in human A549 cells assessed as contraction towards cell border at 2.5 to 5 uM incubated for 24 hrs by immunofluorescence based analysis; settings: dose 2.5-5 µM
A549 [3] = experiment: Induction of cell cycle arrest in human A549 cells assessed as accumulation at G1 phase at 0.25 uM incubated for 24 hrs by PI staining based flow cytometry (reference value: 58.67 %); type: functional
A549 [4] = experiment: Induction of apoptosis in human A549 cells assessed as necrotic cells at 0.5 uM incubated for 24 hrs by Annexin V-FITC/PI staining based flow cytometry (reference value: 0.13 %); type: functional
A549 [5] = experiment: Antitumor activity against human A549 cells xenografted in BALB/c mouse at 10 mg/kg, ip for 3 weeks administered on every 2 days relative to control; type: functional; settings: A549, 504 h, read-out: TGI
[6] = Antiproliferative activity against human MCF-10A cells by CCK8 assay; type: toxicity, cell-based
A549 [7] = experiment: Induction of cell cycle arrest in human A549 cells assessed as decrease in cdc25c by Western blot analysis; type: functional, cell-based
A549 [8] = experiment: Induction of mitochondrial fragmentation in human A549 cells assessed as increase in green fluorescence at 0.5 uM incubated for 24 hrs by JC-1 dye based analysis; type: functional, cell-based
MCF7 = experiment: Antiproliferative activity against human MCF7 cells by CCK8 assay
A549 [9] = experiment: Anti-migration activity in human A549 cells assessed as migration rate at 0.25 uM incubated for 24 hrs by wound healing assay (reference value: 73.94 %); type: functional
[10] = Toxicity in BALB/c mouse xenografted with human A549 cells assessed as effect on spleen at 10 to 20 mg/kg, ip for 3 weeks administered on every 2 days by H and E staining based analysis; type: organism-based; settings: in vivo, 504 h, dose 10-20 mg/kg
[11] = Toxicity in BALB/c mouse xenografted with human A549 cells assessed as effect on kidney at 10 to 20 mg/kg, ip for 3 weeks administered on every 2 days by H and E staining based analysis; type: organism-based; settings: in vivo, 504 h, dose 10-20 mg/kg
A549 [12] = experiment: Induction of intracellular ROS accumulation in human A549 cells at 0.5 uM incubated for 24 hrs by DCFH-DA dye based flow cytometry (reference value: 4.96 %); type: functional
A549 [13] = experiment: Induction of intracellular ROS accumulation in human A549 cells assessed as increase in green fluorescence incubated for 24 hrs by DCFH-DA dye based confocal microscopy; type: functional, cell-based
A549 [14] = experiment: Induction of mitochondrial membrane potential loss in human A549 cells at 0.5 uM incubated for 24 hrs by JC-1 dye based analysis (reference value: 3.14 %); type: functional
Stromelysin-1 = Stromelysin-1 (Homo sapiens, UniProt P08254); experiment: Inhibition of MMP-3 (unknown origin) using fluorogenic-McaPro-Leu-Gly-Leu-Dpa-Ala-Arg-NH2 as substrate
Sequence of Stromelysin-1 (P08254 whole entry): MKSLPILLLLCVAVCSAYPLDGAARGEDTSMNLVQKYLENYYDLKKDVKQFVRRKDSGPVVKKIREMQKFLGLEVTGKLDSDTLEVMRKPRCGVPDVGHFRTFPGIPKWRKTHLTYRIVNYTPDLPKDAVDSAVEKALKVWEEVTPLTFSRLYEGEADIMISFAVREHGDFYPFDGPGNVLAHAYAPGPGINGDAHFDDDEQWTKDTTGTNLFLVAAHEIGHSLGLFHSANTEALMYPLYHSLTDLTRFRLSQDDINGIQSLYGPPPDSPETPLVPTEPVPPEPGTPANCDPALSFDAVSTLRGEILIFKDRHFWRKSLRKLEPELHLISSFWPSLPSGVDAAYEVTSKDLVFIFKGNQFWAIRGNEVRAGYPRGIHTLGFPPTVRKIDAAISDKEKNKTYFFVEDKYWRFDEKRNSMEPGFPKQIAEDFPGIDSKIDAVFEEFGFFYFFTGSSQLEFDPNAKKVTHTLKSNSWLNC

[15] = Antiproliferative activity against human L02 cells by CCK8 assay; type: toxicity, cell-based
A549 [16] = experiment: Induction of apoptosis in human A549 cells assessed as late apoptotic cells at 0.5 uM incubated for 24 hrs by Annexin V-FITC/PI staining based flow cytometry (reference value: 1.01 %); type: functional
A549 [17] = experiment: cells; settings: Homo sapiens
Description: Antiproliferative activity against human A549 cells by CCK8 assay

A549 [18] = experiment: Induction of cell cycle arrest in human A549 cells assessed as accumulation at S phase at 0.5 uM incubated for 24 hrs by PI staining based flow cytometry (reference value: 37.95 %); type: functional
A549 [19] = experiment: Induction of apoptosis in human A549 cells assessed as increase in cleaved caspase-3 level at 0.5 uM incubated for 24 hrs by Western blot analysis; type: functional, cell-based
A549 [20] = experiment: Induction of apoptosis in human A549 cells assessed as late apoptotic cells at 0.25 uM incubated for 24 hrs by Annexin V-FITC/PI staining based flow cytometry (reference value: 1.01 %); type: functional
NCI-H460 = experiment: Antiproliferative activity against human NCI-H460 cells by CCK8 assay
A549 [21] = experiment: Induction of apoptosis in human A549 cells assessed as early apoptotic cells at 0.25 uM incubated for 24 hrs by Annexin V-FITC/PI staining based flow cytometry (reference value: 3.04 %); type: functional
A549 [22] = experiment: Antitumor activity against human A549 cells xenografted in BALB/c mouse assessed as decrease in Ki67 level at 20 mg/kg, ip for 3 weeks administered on every 2 days by IHC analysis; type: functional, organism-based
A549 [23] = experiment: Induction of cell cycle arrest in human A549 cells assessed as accumulation at G2 phase at 0.25 uM incubated for 24 hrs by PI staining based flow cytometry (reference value: 3.37 %); type: functional
A549 [24] = experiment: Anti-migration activity in human A549 cells assessed as migration rate at 0.5 uM incubated for 24 hrs by wound healing assay (reference value: 73.94 %); type: functional
A549 [25] = experiment: Induction of apoptosis in human A549 cells assessed as increase in Bax level at 0.5 uM incubated for 24 hrs by Western blot analysis; type: functional, cell-based
A549 [26] = experiment: Induction of cell cycle arrest in human A549 cells assessed as accumulation at S phase at 0.25 uM incubated for 24 hrs by PI staining based flow cytometry (reference value: 37.95 %); type: functional
A549 [27] = experiment: Downregulation of IKK-beta phosphorylation in TNF-alpha-treated human A549 cells by Western blot analysis; type: functional, cell-based
A549 [28] = experiment: Antitumor activity against human A549 cells xenografted in BALB/c mouse at 20 mg/kg, ip for 3 weeks administered on every 2 days relative to control; type: functional; settings: A549, 504 h, read-out: TGI
A549 [29] = experiment: Induction of cell cycle arrest in human A549 cells assessed as decrease in cyclin B1 by Western blot analysis; type: functional, cell-based
A549 [30] = experiment: Induction of apoptosis in human A549 cells assessed as viable cells at 0.5 uM incubated for 24 hrs by Annexin V-FITC/PI staining based flow cytometry (reference value: 95.82 %); type: functional; settings: read-out: Activity
A549 [31] = experiment: Induction of DNA damage in human A549 cells assessed as increase in gamma-H2AX level at 0.5 uM incubated for 24 hrs by immunofluorescence based analysis; type: functional, cell-based
[32] = Stability of compound in PBS at pH 7.4 measured for 24 to 72 hrs; type: physicochemical; settings: buffer, time 24-72 hrs
A549 [33] = experiment: Induction of cell cycle arrest in human A549 cells assessed as decrease in cdc2 by Western blot analysis; type: functional, cell-based
A549 [34] = experiment: Induction of intracellular ROS accumulation in human A549 cells at 0.25 uM incubated for 24 hrs by DCFH-DA dye based flow cytometry (reference value: 4.96 %); type: functional

For CCOP(=O)(OCC)C(Nc1ccc(CC(=O)Oc2cc(/C=C/C(=O)c3cc(OC)c(OC)c(OC)c3)ccc2OC)cc1)c1cccc([N+](=O)[O-])c1 (stereo not drawn), the Activity [1] was “Non-toxic”, the Activity (A549 [2]) was “Active” and the Activity (Tubulin (Homo sapiens)) was “Active”. For the same compound, the Activity (A549 [3]) was 42.09%, the Activity (A549 [4]) was 0.93% and the inhibition in vivo at 10 mg/kg (A549 [5]) was 53.3%. The IC50 [6] was 2.71 µM, the Activity (A549 [7]) was “Active” and the Activity (A549 [8]) was “Active”. The IC50 (MCF7) was 0.253 µM, the Activity (A549 [9]) was 62.35% and the Activity [10] was “Non-toxic”. The Activity [11] was “Non-toxic”, the Activity (A549 [12]) was 70.79% and the Activity (A549 [13]) was “Active”. It also gave an Activity (A549 [14]) of 56.15%, an IC50 (Stromelysin-1) of 36.5 µM and an IC50 [15] of 2.21 µM. It also gave an Activity (A549 [16]) of 6.34%, an IC50 (A549 [17]) of 0.154 µM and an Activity (A549 [18]) of 3.19%. The Activity (A549 [19]) was “Active”, the Activity (A549 [20]) was 3.62% and the IC50 (NCI-H460) was 0.186 µM. The Activity (A549 [21]) was 16.18%, the Activity (A549 [22]) was “Active” and the Activity (A549 [23]) was 37.79%. For the same compound, the Activity (A549 [24]) was 25.17%, the Activity (A549 [25]) was “Active” and the Activity (A549 [26]) was 20.12%. For the same compound, the Activity (A549 [27]) was “Active”, the inhibition in vivo at 20 mg/kg (A549 [28]) was 74.7% and the Activity (A549 [29]) was “Active”. For the same compound, the viability at 0.5 µM (A549 [30]) was 57.9%, the Activity (A549 [31]) was “Active” and the Stability [32] was “Stable”. For the same compound, the Activity (A549 [33]) was “Active” and the Activity (A549 [34]) was 36.07%.
